From patent US9567319B2, “Compound having higher inhibitory activity on protein kinase G and preparation method thereof” (Jenkem Technology Co., Ltd., (Tianjin), priority 2014, dated 2017)
Where “and” joins values, the source holds several entries; their conditions need not be identical. Equal values may be shown once.

Key:
[1] = Test of water solubility of the compounds
[2] = system: hyperalgesia induced by Freund's complete adjuvant (CFA) in rats; experiment: Weight bearing test, CFA induced hyperalgesia in rats; format: in vivo, SD rats; details: for Weight Bearing Test Values (Mean ± SD), Baseline: pretreatment, n=8; for Weight Bearing Test Values (Mean ± SD), 15 min: 15 min post treatment; for Weight Bearing Test Values (Mean ± SD), 2 h: 2 h post treatment
Experimental: Compounds 46 and JK-02A were prepared according to the disclosure of US patent application No. US2008/0176920, and compound JK-02H was prepared according to Example 1. A repeat efficacy study was carried out on the same batch of animals with a single-dose treatment followed by a washing-out period. The 14 days in life studies included two stages: a single low dose treatment assessment on the 7th day and then a single high dose treatment test on the 14th day after CFA injection. On the 7th day after CFA injection, the rats were randomly assigned to respective groups using a computer generated randomization procedure based on the body weight and the baseline values of Von Frey and weight bearing test. Animals received corresponding single dose treatments (vehicle and 3 test articles) on the 7th and 14th days after CFA injection, respectively, and the effect of the test compounds were evaluated. Hyperalgesia of all the study animals was assessed following a single low dose treatment with the test articles on day 7, while a single high dose effect of the test article was evaluated on day 14. The mechanical hyperalgesia and weight bearing were measured on day 7 and day 14 after CFA injection, followed by administration of control or test articles. Von Frey filaments and weight bearing were measured on all the study animals at three time points on day 7, and four time points on day 14. An extra time point assessment was conducted on day 14, considering the strong analgesic effect of the test articles at a higher dose noticed during the test at the 3th time point. Rats distributed body weight unequally on the CFA-injected and contra lateral paws, which was measured by a weight balance changing instrument (Bio-medical, USA). The animals were tested in a box constructed to register the weight load exerted by the hind paws by means of force plates inserted in the floor. The mean weight bearing (unit in “g”) between the CFA-injected paw and the contra-lateral paw was determined in 10 seconds. The weight bearing test of all study animals was conducted at the same time intervals as the mechanical hyperalgesia test. All the results were expressed as mean±SD. One-way analysis of variance (ANOVA) followed by a multiple comparison test were applied among the groups, p<0.05 accepted as significant.

[3] = system: hyperalgesia induced by Freund's complete adjuvant (CFA) in rats; experiment: Von Frey filament test, CFA induced hyperalgesia in rats; format: in vivo, SD rats; details: for Von Frey Filament Test Values (Mean ± SD), Baseline: pretreatment, n=8; for Von Frey Filament Test Values (Mean ± SD), 15 min: 15 min post treatment; for Von Frey Filament Test Values (Mean ± SD), 2 h: 2 h post treatment
Experimental: Compounds 46 and JK-02A were prepared according to the disclosure of US patent application No. US2008/0176920, and compound JK-02H was prepared according to Example 1. A repeat efficacy study was carried out on the same batch of animals with a single-dose treatment followed by a washing-out period. The 14 days in life studies included two stages: a single low dose treatment assessment on the 7th day and then a single high dose treatment test on the 14th day after CFA injection. On the 7th day after CFA injection, the rats were randomly assigned to respective groups using a computer generated randomization procedure based on the body weight and the baseline values of Von Frey and weight bearing test. Animals received corresponding single dose treatments (vehicle and 3 test articles) on the 7th and 14th days after CFA injection, respectively, and the effect of the test compounds were evaluated. Hyperalgesia of all the study animals was assessed following a single low dose treatment with the test articles on day 7, while a single high dose effect of the test article was evaluated on day 14. The mechanical hyperalgesia and weight bearing were measured on day 7 and day 14 after CFA injection, followed by administration of control or test articles. Von Frey filaments and weight bearing were measured on all the study animals at three time points on day 7, and four time points on day 14. An extra time point assessment was conducted on day 14, considering the strong analgesic effect of the test articles at a higher dose noticed during the test at the 3th time point. Mechanical hyperalgesia of the left hind paw was measured before and during the course of study in all animal groups by determining withdrawal thresholds to Von Frey filament (Bioseb, France). Increasing tensile force perpendicular to the plantar surface of the paw was applied to the filaments. The threshold for paw withdrawal was calculated by taking the average of 2-3 repeated stimuli (unit in “g”). On day 7, Von Frey Filament measurements were conducted three times, at the time points of pretreatment, 15 min and 2 hours post treatment. Following a one-week washing out period, on day 14 after CFA injection, Von Frey Filament tests were performed again four times post a single high dose administration. Rats treated with vehicle or high dose test articles were measured at the time points of pretreatment, 15 min, 2 and 5 hours post treatment. All the results were expressed as mean±SD. One-way analysis of variance (ANOVA) followed by a multiple comparison test were applied among the groups, p<0.05 accepted as significant.

[4] = day 7 after CFA, low dose groups (46 and JK-02A 10 mg/kg, JK-02H 5 mg/kg)
[5] = day 7 after CFA, single low dose i.v. (46 and JK-02A 10 mg/kg, JK-02H 5 mg/kg)
[6] = day 14 after CFA, high dose groups (46 and JK-02A 40 mg/kg, JK-02H 20 mg/kg)
[7] = day 14 after CFA, single high dose i.v. (46 and JK-02A 40 mg/kg, JK-02H 20 mg/kg)
[8] = day 14 after CFA, single high dose i.v. (46 and JK-02A 40 mg/kg, JK-02H 20 mg/kg), 5 h post treatment
[9] = individual animal, high dose i.v. (46 and JK-02A 40 mg/kg, JK-02H 20 mg/kg), hydrochloride
[10] = individual animal, low dose i.v. (46 and JK-02A 10 mg/kg, JK-02H 5 mg/kg), hydrochloride
[11] = individual animal, high dose i.v. (46 and JK-02A 40 mg/kg, JK-02H 20 mg/kg), two repeated stimuli, hydrochloride
[12] = individual animal, low dose i.v. (46 and JK-02A 10 mg/kg, JK-02H 5 mg/kg), two repeated stimuli, hydrochloride

Cl.O=C(N[C@@H]1CNC[C@H]1NC(=O)c1ccc2cn[nH]c2c1)c1ccc(C(=O)c2c(OCCOCCO)ccc(F)c2F)cc1 [JK-02H, (3R,4R)-3-{4-[2,3-difluoro-6-(5-hydroxy-3-oxapentan-1-oxy)]benzoyl}benzamido-4-(1H-indazole-6-carboxamido)pyrrolidine hydrochloride]
Volume of added water ([1]; about 0.1 g sample, room temperature, water added until dissolved): 13.5 mL
water solubility, times higher than that of compound 46 ([1]; relative to compound 46 (parent compound)): about 5 times
solubility ([1]; water, thermodynamic from solid): 7400 µg/mL
Weight Bearing Test Values (Mean ± SD), Baseline [2, 4]: 48.83 ± 9.15 g
Weight Bearing Test Values (Mean ± SD), 15 min [2, 5]: 25.30 ± 7.97 g
Weight Bearing Test Values (Mean ± SD), 2 h [2, 5]: 37.43 ± 9.77 g
Weight Bearing Test Values (Mean ± SD), Baseline [2, 6]: 46.68 ± 4.82 g
Weight Bearing Test Values (Mean ± SD), 15 min [2, 7]: 28.55 ± 10.91 g
Weight Bearing Test Values (Mean ± SD), 2 h [2, 7]: 30.48 ± 7.88 g
Weight Bearing Test Values (Mean ± SD), 5 h [2, 8]: 37.58 ± 6.58 g
Weight Bearing Values of Individual Animal, Day 14, 15 min, Left [2, 9]: 59.4 g and 69.4 g and 72.7 g and 72.8 g and 23.1 g and 55.7 g and 42.0 g and 55.0 g
Weight Bearing Values of Individual Animal, Day 14, 15 min, Right [2, 9]: 82.5 g and 90.8 g and 92.9 g and 99.1 g and 77.6 g and 82.3 g and 70.4 g and 82.9 g
Weight Bearing Values of Individual Animal, Day 14, 15 min, Δ [2, 9]: 23.1 g and 21.4 g and 20.2 g and 26.3 g and 54.5 g and 26.6 g and 28.4 g and 27.9 g
Weight Bearing Values of Individual Animal, Day 14, 2 h, Left [2, 9]: 75.2 g and 69.4 g and 47.2 g and 71.7 g (2×) and 76.8 g and 55.9 g and 47.9 g
Weight Bearing Values of Individual Animal, Day 14, 2 h, Right [2, 9]: 95.7 g and 104.8 g and 90.0 g and 96.8 g and 99.9 g and 93.7 g and 80.6 g and 98.1 g
Weight Bearing Values of Individual Animal, Day 14, 2 h, Δ [2, 9]: 20.5 g and 35.4 g and 42.8 g and 25.1 g and 23.1 g and 37.8 g and 32.7 g and 26.4 g
Weight Bearing Values of Individual Animal, Day 14, 5 h, Left [2, 9]: 63.5 g and 62.4 g and 66.3 g and 54.9 g and 63.8 g and 57.7 g and 47.6 g and 44.0 g
Weight Bearing Values of Individual Animal, Day 14, 5 h, Right [2, 9]: 94.2 g and 111.2 g and 105.6 g and 95.6 g and 95.1 g and 88.7 g and 83.3 g and 87.1 g
Weight Bearing Values of Individual Animal, Day 14, 5 h, Δ [2, 9]: 30.7 g and 48.8 g and 39.3 g and 40.7 g and 31.3 g and 31.0 g and 35.7 g and 43.1 g
Weight Bearing Values of Individual Animal, Day 7, 15 min, Left [2, 10]: 54.2 g and 73.4 g and 30.9 g and 63.3 g and 46.3 g and 67.8 g and 45.1 g and 60.6 g
Weight Bearing Values of Individual Animal, Day 7, 15 min, Right [2, 10]: 77.2 g and 99.2 g and 71.7 g and 77.8 g and 72.4 g and 85.5 g and 75.2 g and 85.0 g
Weight Bearing Values of Individual Animal, Day 7, 15 min, Δ [2, 10]: 23.0 g and 25.8 g and 40.8 g and 14.5 g and 26.1 g and 17.7 g and 30.1 g and 24.4 g
Weight Bearing Values of Individual Animal, Day 7, 2 h, Left [2, 10]: 42.3 g and 29.7 g and 57.5 g and 72.9 g and 23.1 g and 37.3 g and 43.5 g and 51.9 g
Weight Bearing Values of Individual Animal, Day 7, 2 h, Right [2, 10]: 66.8 g and 74.0 g and 106.2 g and 97.7 g and 71.6 g and 77.0 g and 81.2 g and 83.1 g
Weight Bearing Values of Individual Animal, Day 7, 2 h, Δ [2, 10]: 24.5 g and 44.3 g and 48.7 g and 24.8 g and 48.5 g and 39.7 g and 37.7 g and 31.2 g
First Baseline, Balance Left, individual animal ([2]; individual animal, pretreatment day 7, left (CFA-injected) hind paw, hydrochloride): 62.6 g and 45.6 g and 51.0 g and 60.6 g and 48.8 g and 56.5 g and 38.6 g and 64.0 g
First Baseline, Balance Right, individual animal ([2]; individual animal, pretreatment day 7, right hind paw, hydrochloride): 96.2 g (2×) and 101.1 g and 115.5 g and 89.7 g and 121.0 g and 87.7 g and 110.9 g
First Baseline, Balance Δ, individual animal ([2]; individual animal, pretreatment day 7, right minus left, hydrochloride): 33.6 g and 50.6 g and 50.1 g and 54.9 g and 40.9 g and 64.5 g and 49.1 g and 46.9 g
Second Baseline, Balance Left, individual animal ([2]; individual animal, pretreatment day 14, left (CFA-injected) hind paw, hydrochloride): 43.2 g and 65.0 g and 68.9 g and 61.3 g and 47.2 g and 60.6 g and 50.2 g and 51.8 g
Second Baseline, Balance Right, individual animal ([2]; individual animal, pretreatment day 14, right hind paw, hydrochloride): 86.1 g and 110.8 g and 113.2 g and 115.1 g and 93.6 g and 102.8 g and 93.7 g and 106.3 g
Second Baseline, Balance Δ, individual animal ([2]; individual animal, pretreatment day 14, right minus left, hydrochloride): 42.9 g and 45.8 g and 44.3 g and 53.8 g and 46.4 g and 42.2 g and 43.5 g and 54.5 g
Von Frey Filament Test Values (Mean ± SD), Baseline [3, 4]: 6.76 ± 0.73 g
Von Frey Filament Test Values (Mean ± SD), 15 min [3, 5]: 9.85 ± 2.15 g
Von Frey Filament Test Values (Mean ± SD), 2 h [3, 5]: 8.69 ± 1.57 g
Von Frey Filament Test Values (Mean ± SD), Baseline [3, 6]: 6.81 ± 0.70 g
Von Frey Filament Test Values (Mean ± SD), 15 min [3, 7]: 10.87 ± 1.00 g
Von Frey Filament Test Values (Mean ± SD), 2 h [3, 7]: 10.57 ± 1.76 g
Von Frey Filament Test Values (Mean ± SD), 5 h [3, 8]: 9.68 ± 1.63 g
Von Frey Values of Individual Animal, Day 14, 15 min [3, 11]: 11.6 g and 11.4 g (2×) and 9.4 g (2×) and 10.9 g and 9.7 g and 10.3 g and 10.1 g and 11.1 g and 10.8 g and 10.4 g and 12.0 g and 13.7 g and 11.7 g and 10.0 g
Von Frey Values of Individual Animal, Day 14, 2 h [3, 11]: 7.1 g and 8.9 g and 11.3 g and 10.8 g (2×) and 9.2 g and 7.2 g and 12.0 g and 9.8 g and 10.5 g and 10.3 g and 11.4 g and 11.0 g and 12.3 g and 13.0 g and 13.5 g
Von Frey Values of Individual Animal, Day 14, 5 h [3, 11]: 7.3 g and 8.9 g and 8.7 g (2×) and 9.5 g and 7.1 g and 7.4 g and 8.5 g and 11.0 g and 9.8 g and 11.3 g and 9.9 g and 11.2 g and 12.6 g and 12.1 g and 10.9 g
Von Frey Values of Individual Animal, Day 7, 15 min [3, 12]: 6.5 g and 5.5 g and 11.9 g and 13.8 g and 8.6 g and 8.5 g (2×) and 10.5 g (2×) and 11.3 g (2×) and 8.7 g and 9.3 g and 9.7 g and 11.4 g and 11.7 g
Von Frey Values of Individual Animal, Day 7, 2 h [3, 12]: 7.0 g and 6.2 g and 11.4 g and 11.2 g and 8.7 g (2×) and 9.0 g and 7.5 g (3×) and 6.5 g and 8.5 g and 10.8 g (2×) and 8.4 g and 9.4 g
First Baseline, Von Frey, individual animal ([3]; individual animal, pretreatment day 7, two repeated stimuli per animal, hydrochloride): 4.9 g and 5.8 g (3×) and 6.7 g and 7.7 g and 6.1 g and 7.0 g and 7.1 g and 6.4 g and 7.4 g (2×) and 7.3 g (2×) and 8.0 g and 7.5 g
Second Baseline, Von Frey, individual animal ([3]; individual animal, pretreatment day 14 after washing-out, two repeated stimuli per animal, hydrochloride): 5.2 g and 5.4 g and 8.4 g and 6.7 g and 6.6 g (2×) and 6.4 g and 7.3 g (2×) and 7.1 g and 6.8 g and 7.6 g and 7.4 g and 6.9 g and 6.2 g and 7.0 g
